US20250122223A1, “HETEROCYCLIC COMPOUNDS AS UBIQUITIN SPECIFIC PROTEASE 7 INHIBITORS” (ALMAC DISCOVERY LIMITED, priority 2022, published 2025)

Key:
USP7 [1] = molecular target: T1, USP7 (Homo sapiens (Human), UniProt Q93009); test: USP7 fluorescence polarisation (FP) assay with ubiquitin-Lys-TAMRA substrate; format: biochemical
USP7 [2] = molecular target: T1, USP7; test: Target engagement assay-HTRF, competition with HA-Ub-VPS probe in HEK293 cells stably expressing Flag-tagged USP7; format: cell-based; details: HEK293 stable clone M6C5, 2 h treatment; read-out: Cellular target engagement: HEK293 Stable clone M6C5 USP7 IC50
Experimental: HEK293 cells stably expressing Flag-tagged USP7 were treated with vehicle (DMSO) or compound (using 50 μM starting concentration and 11 dp using 1:3 serial dilution) for 2 h and subsequently lysed on ice and homogenised. Cell lysate and HA-Ub-VPS probe was then added to a white flat bottomed 384 well plate (Greiner) to a total volume of 10 μL and incubated for 40 min. 10 μL of D2 and Tb detection antibodies were subsequently added to give a final assay volume of 20 μL. Following incubation, HTRF were measured using a Pherastar FSX (BMG Labtech) exciting at 337 nm and measuring the emission at 620/665 nm. The HTRF ratiometric signal was derived and subsequently normalised to the lysate only controls. Data were plotted and fitted, and the concentrations resulting in 50% inhibition (IC50) were calculated using the non-linear regression curve fitting model using GraphPad Prism. IC50 values for the inhibitors of the invention are compiled in Table 1 above and represent the average of at least duplicate experiments.

[3] = average of at least duplicate experiments, read-out: Biochemical: USP7 IC50
[4] = biochemical inhibition, read-out: USP7 IC50 activity (Table 3a, classes)
[5] = biochemical inhibition, unit not given in Table 3b (Table 1 and key of Table 3a use μM), read-out: USP7 IC50 activity (Table 3b)

T1 sequence (Q93009 whole entry): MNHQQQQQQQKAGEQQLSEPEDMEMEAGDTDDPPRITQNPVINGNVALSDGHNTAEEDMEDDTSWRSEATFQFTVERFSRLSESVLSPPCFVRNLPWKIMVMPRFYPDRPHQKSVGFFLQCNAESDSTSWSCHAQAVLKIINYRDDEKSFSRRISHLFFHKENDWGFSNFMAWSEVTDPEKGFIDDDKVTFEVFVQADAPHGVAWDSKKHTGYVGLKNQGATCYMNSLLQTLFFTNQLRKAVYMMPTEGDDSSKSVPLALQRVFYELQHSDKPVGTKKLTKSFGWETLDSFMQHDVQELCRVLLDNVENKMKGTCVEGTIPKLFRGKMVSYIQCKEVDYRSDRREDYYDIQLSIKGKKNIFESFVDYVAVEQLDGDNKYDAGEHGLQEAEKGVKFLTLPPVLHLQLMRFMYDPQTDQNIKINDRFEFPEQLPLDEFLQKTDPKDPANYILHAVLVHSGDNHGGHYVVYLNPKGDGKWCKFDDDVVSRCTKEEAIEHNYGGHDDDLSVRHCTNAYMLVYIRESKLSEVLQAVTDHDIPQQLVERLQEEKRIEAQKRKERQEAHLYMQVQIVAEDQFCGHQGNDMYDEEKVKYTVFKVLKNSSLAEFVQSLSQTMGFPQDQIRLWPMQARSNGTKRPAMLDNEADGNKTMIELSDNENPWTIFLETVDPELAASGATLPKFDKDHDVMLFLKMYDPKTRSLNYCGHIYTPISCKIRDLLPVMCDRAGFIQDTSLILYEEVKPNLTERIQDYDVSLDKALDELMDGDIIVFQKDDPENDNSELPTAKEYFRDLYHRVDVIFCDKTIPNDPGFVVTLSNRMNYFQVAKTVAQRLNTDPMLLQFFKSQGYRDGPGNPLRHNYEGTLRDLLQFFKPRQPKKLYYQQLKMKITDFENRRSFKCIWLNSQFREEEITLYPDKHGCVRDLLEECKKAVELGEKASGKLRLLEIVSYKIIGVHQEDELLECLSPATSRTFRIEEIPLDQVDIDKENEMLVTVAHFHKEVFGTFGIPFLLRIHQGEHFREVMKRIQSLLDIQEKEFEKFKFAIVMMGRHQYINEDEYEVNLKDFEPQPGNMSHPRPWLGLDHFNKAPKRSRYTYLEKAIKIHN

Cc1cc(-n2c(Cl)cc3c(=O)n(CC4(O)CCN(C(=O)[C@]5(C)C[C@H]5C(F)(F)F)CC4)cnc32)ccc1[C@H]1CO[C@H](C)CN1 (single isomer, unassigned) [Example 62]
IC50 (USP7 [1]; [3]): 0.038 µM | IC50 (USP7 [1]; [4]): < 0.1 µM | IC50 (USP7 [1]; [5]): 0.038 µM | IC50 (USP7 [2]): 100 nM

CC[C@H]1CN[C@H](c2ccc(-n3c(Cl)cc4c(=O)n(CC5(O)CCN(C(=O)[C@]6(C)C[C@H]6C(F)(F)F)CC5)cnc43)cc2)CO1 (single isomer, unassigned) [Example 66, 6-Chloro-7-(4-((3R,6S)-6-ethylmorpholin-3-yl)phenyl)-3-((4-hydroxy-1-((1 S,2S)-1-methyl-2-(trifluoromethyl)cyclopropane-1-carbonyl)piperidin-4-yl)methyl)-3,7-dihydro-4H-pyrrolo[2,3-d]pyrimidin-4-one or 6-chloro-7-(4-((3R,6S)-6-ethylmorpholin-3-yl)phenyl)-3-((4-hydroxy-1-((1R,2R)-1-methyl-2-(trifluoromethyl)cyclopropane-1-carbonyl)piperidin-4-yl)methyl)-3,7-dihydro-4H-pyrrolo[2,3-d]pyrimidin-4-one]
IC50 (USP7 [1]; [3]): 0.063 µM | IC50 (USP7 [1]; [4]): < 0.1 µM | IC50 (USP7 [1]; [5]): 0.063 µM | IC50 (USP7 [2]): 74 nM

O=C(C[C@H](c1ccccc1)C(F)F)N1CCC(O)(Cn2cnc3c(cc(Cl)n3-c3ccc([C@H]4COCCN4)cc3)c2=O)CC1 (single isomer, unassigned) [Example 82]
IC50 (USP7 [1]; [3]): 0.006 µM | IC50 (USP7 [1]; [4]): < 0.1 µM | IC50 (USP7 [1]; [5]): 0.006 µM | IC50 (USP7 [2]): 9.4 nM

C[C@H]1OCCN[C@@H]1c1ccc(-n2c(Cl)cc3c(=O)n(CC4(O)CCN(C(=O)c5ccc(Cl)cc5)CC4)cnc32)cc1 [Example 8, 6-Chloro-3-((1-(4-chlorobenzoyl)-4-hydroxypiperidin-4-yl)methyl)-7-(4-((2R,3R)-2-methylmorpholin-3-yl)phenyl)-3,7-dihydro-4H-pyrrolo[2,3-d]pyrimidin-4-one]
IC50 (USP7 [1]; [3]): 0.077 µM | IC50 (USP7 [1]; [4]): < 0.1 µM | IC50 (USP7 [1]; [5]): 0.077 µM | IC50 (USP7 [2]): 66 nM

Cc1cc(-n2c(Cl)cc3c(=O)n(CC4(O)CCN(C(=O)C[C@H](c5ccccc5)C(F)(F)F)CC4)cnc32)ccc1[C@H]1CO[C@H](C)CN1 [Example 14, 6-Chloro-3-((4-hydroxy-1-((R)-4,4,4-trifluoro-3-phenylbutanoyl)piperidin-4-yl)methyl)-7-(3-methyl-4-((3S,6R)-6-methylmorpholin-3-yl)phenyl)-3,7-dihydro-4H-pyrrolo[2,3-d]pyrimidin-4-one]
IC50 (USP7 [1]; [3]): 0.018 µM | IC50 (USP7 [1]; [4]): < 0.1 µM | IC50 (USP7 [1]; [5]): 0.018 µM | IC50 (USP7 [2]): 40 nM

CC[C@H]1CN[C@H](c2ccc(-n3c(Cl)cc4c(=O)n(CC5(O)CCN(C(=O)[C@]6(C)C[C@H]6C)CC5)cnc43)cc2)CO1 [Example 96, 6-Chloro-3-((1-((1R,2R)-1,2-dimethylcyclopropane-1-carbonyl)-4-hydroxypiperidin-4-yl)methyl)-7-(4-((3R,6S)-6-ethylmorpholin-3-yl)phenyl)-3,7-dihydro-4H-pyrrolo[2,3-d]pyrimidin-4-one]
IC50 (USP7 [1]; [4]): < 0.1 µM | IC50 (USP7 [1]; [5]): 0.037 µM

C[C@H]1CN[C@H](c2ccc(-n3c(Cl)cc4c(=O)n(CC5(O)CCN(C(=O)C(C6CC6)C6CC6)CC5)cnc43)cc2)CO1 [Example 99, 6-Chloro-3-((1-(2,2-dicyclopropylacetyl)-4-hydroxypiperidin-4-yl)methyl)-7-(4-((3R,6S)-6-methylmorpholin-3-yl)phenyl)-3,7-dihydro-4H-pyrrolo[2,3-d]pyrimidin-4-one]
IC50 (USP7 [1]; [4]): 0.25 to 2 µM | IC50 (USP7 [1]; [5]): 0.263 µM

CC1(C(=O)N2CCC(O)(Cn3cnc4c(cc(Cl)n4-c4ccc([C@@H]5CO[C@@H](C6CC6)CN5)cc4)c3=O)CC2)CC1 [Example 100, 6-Chloro-7-(4-((3R,6S)-6-cyclopropylmorpholin-3-yl)phenyl)-3-((4-hydroxy-1-(1-methylcyclopropane-1-carbonyl)piperidin-4-yl)methyl)-3,7-dihydro-4H-pyrrolo[2,3-d]pyrimidin-4-one]
IC50 (USP7 [1]; [4]): < 0.1 µM | IC50 (USP7 [1]; [5]): 0.079 µM

C[C@H]1CN[C@H](c2ccc(-n3c(Cl)cc4c(=O)n(CC5(O)CCN(C(=O)C6(C)CC6)CC5)cnc43)cc2)CO1 [Example 101, 6-Chloro-3-((4-hydroxy-1-(1-methylcyclopropane-1-carbonyl)piperidin-4-yl)methyl)-7-(4-((3R,6S)-6-methylmorpholin-3-yl)phenyl)-3,7-dihydro-4H-pyrrolo[2,3-d]pyrimidin-4-one]
IC50 (USP7 [1]; [4]): < 0.1 µM | IC50 (USP7 [1]; [5]): 0.057 µM

C[C@H]1CN[C@H](c2ccc(-n3c(Cl)cc4c(=O)n(CC5(O)CCN(C(=O)C6(C)CCC6)CC5)cnc43)cc2)CO1 [Example 102, 6-Chloro-3-((4-hydroxy-1-(1-methylcyclobutane-1-carbonyl)piperidin-4-yl)methyl)-7-(4-((3R,6S)-6-methylmorpholin-3-yl)phenyl)-3,7-dihydro-4H-pyrrolo[2,3-d]pyrimidin-4-one]
IC50 (USP7 [1]; [4]): < 0.1 µM | IC50 (USP7 [1]; [5]): 0.05 µM

C[C@H]1CN[C@H](c2ccc(-n3c(Cl)cc4c(=O)n(CC5(O)CCN(C(=O)CCC6CC6)CC5)cnc43)cc2)CO1 [Example 103, 6-Chloro-3-((1-(3-cyclopropylpropanoyl)-4-hydroxypiperidin-4-yl)methyl)-7-(4-((3R,6S)-6-methylmorpholin-3-yl)phenyl)-3,7-dihydro-4H-pyrrolo[2,3-d]pyrimidin-4-one]
IC50 (USP7 [1]; [4]): 0.1 to 0.25 µM | IC50 (USP7 [1]; [5]): 0.211 µM

CC1(C(=O)N2CCC(O)(Cn3cnc4c(cc(Cl)n4-c4ccc([C@H]5CO[C@H](C6CC6)CN5)cc4)c3=O)CC2)CC1 [Example 104, 6-Chloro-7-(4-((3S,6R)-6-cyclopropylmorpholin-3-yl)phenyl)-3-((4-hydroxy-1-(1-methylcyclopropane-1-carbonyl)piperidin-4-yl)methyl)-3,7-dihydro-4H-pyrrolo[2,3-d]pyrimidin-4-one]
IC50 (USP7 [1]; [4]): < 0.1 µM | IC50 (USP7 [1]; [5]): 0.094 µM

CC[C@@H]1CN[C@@H](c2ccc(-n3c(Cl)cc4c(=O)n(CC5(O)CCN(C(=O)C6(C)CC6)CC5)cnc43)cc2)CO1 [Example 105, 6-Chloro-7-(4-((3S,6R)-6-ethylmorpholin-3-yl)phenyl)-3-((4-hydroxy-1-(1-methylcyclopropane-1-carbonyl)piperidin-4-yl)methyl)-3,7-dihydro-4H-pyrrolo[2,3-d]pyrimidin-4-one]
IC50 (USP7 [1]; [4]): < 0.1 µM | IC50 (USP7 [1]; [5]): 0.073 µM

CC[C@H]1CN[C@H](c2ccc(-n3c(Cl)cc4c(=O)n(CC5(O)CCN(C(=O)C6(C)CC6)CC5)cnc43)cc2)CO1 [Example 106, 6-Chloro-7-(4-((3R,6S)-6-ethylmorpholin-3-yl)phenyl)-3-((4-hydroxy-1-(1-methylcyclopropane-1-carbonyl)piperidin-4-yl)methyl)-3,7-dihydro-4H-pyrrolo[2,3-d]pyrimidin-4-one]
IC50 (USP7 [1]; [4]): 0.1 to 0.25 µM | IC50 (USP7 [1]; [5]): 0.121 µM

C[C@@H]1CN[C@@H](c2ccc(-n3c(Cl)cc4c(=O)n(CC5(O)CCN(C(=O)C6(C)CC6)CC5)cnc43)cc2)CO1 [Example 107, 6-Chloro-3-((4-hydroxy-1-(1-methylcyclopropane-1-carbonyl)piperidin-4-yl)methyl)-7-(4-((3S,6R)-6-methylmorpholin-3-yl)phenyl)-3,7-dihydro-4H-pyrrolo[2,3-d]pyrimidin-4-one]
IC50 (USP7 [1]; [4]): < 0.1 µM | IC50 (USP7 [1]; [5]): 0.093 µM

C[C@@H]1CN[C@@H](c2ccc(-n3c(Cl)cc4c(=O)n(CC5(O)CCN(C(=O)[C@]6(C)C[C@H]6C(F)(F)F)CC5)cnc43)cc2)CO1 [Example 108, 6-Chloro-3-((4-hydroxy-1-((1R,2R)-1-methyl-2-(trifluoromethyl)cyclopropane-1-carbonyl)piperidin-4-yl)methyl)-7-(4-((3S,6R)-6-methylmorpholin-3-yl)phenyl)-3,7-dihydro-4H-pyrrolo[2,3-d]pyrimidin-4-one]
IC50 (USP7 [1]; [4]): < 0.1 µM | IC50 (USP7 [1]; [5]): 0.042 µM

C[C@@H]1CN[C@@H](c2ccc(-n3c(Cl)cc4c(=O)n(CC5(O)CCN(C(=O)[C@@]6(C)C[C@@H]6C(F)(F)F)CC5)cnc43)cc2)CO1 [Example 109, 6-Chloro-3-((4-hydroxy-1-((1S,2S)-1-methyl-2-(trifluoromethyl)cyclopropane-1-carbonyl)piperidin-4-yl)methyl)-7-(4-((3S,6R)-6-methylmorpholin-3-yl)phenyl)-3,7-dihydro-4H-pyrrolo[2,3-d]pyrimidin-4-one]
IC50 (USP7 [1]; [4]): 0.1 to 0.25 µM | IC50 (USP7 [1]; [5]): 0.182 µM

C[C@H]1CN[C@H](c2ccc(-n3c(Cl)cc4c(=O)n(CC5(O)CCN(C(=O)[C@@]6(C)C[C@@H]6C(F)F)CC5)cnc43)cc2)CO1 [Example 111, 6-Chloro-3-((1-((1 S,2S)-2-(difluoromethyl)-1-methylcyclopropane-1-carbonyl)-4-hydroxypiperidin-4-yl)methyl)-7-(4-((3R,6S)-6-methylmorpholin-3-yl)phenyl)-3,7-dihydro-4H-pyrrolo[2,3-d]pyrimidin-4-one]
IC50 (USP7 [1]; [4]): 0.1 to 0.25 µM | IC50 (USP7 [1]; [5]): 0.145 µM

C[C@H]1CN[C@H](c2ccc(-n3c(Cl)cc4c(=O)n(CC5(O)CCN(C(=O)[C@]6(C)C[C@H]6C(F)F)CC5)cnc43)cc2)CO1 [Example 112, 6-Chloro-3-((1-((1R,2R)-2-(difluoromethyl)-1-methylcyclopropane-1-carbonyl)-4-hydroxypiperidin-4-yl)methyl)-7-(4-((3R,6S)-6-methylmorpholin-3-yl)phenyl)-3,7-dihydro-4H-pyrrolo[2,3-d]pyrimidin-4-one]
IC50 (USP7 [1]; [4]): < 0.1 µM | IC50 (USP7 [1]; [5]): 0.018 µM
